Source: US6344440B1, “Antisecretory factor peptides regulating pathological permeability changes” (Rural Patent Svenska AB, priority 1995, dated 2002)

Key:
[1] = tested on: cholera toxin-induced fluid secretion in rat intestine; details: in vivo
[2] = tested on: CT-induced extravascular penetration of Evans blue in the plexus choroideus; details: rat, in vivo, iv
[3] = tested on: CT-induced extravascular penetration of Evans blue in the small intestine; details: rat, in vivo, iv
[4] = tested on: toxin A from Clostridium difficile-induced inflammation and fluid secretion in the intestinal mucosa; assay: Toxin A-induced intestinal inflammation and fluid secretion, rat intestinal loop model; format: in vivo; details: for toxin A-induced fluid secretion: p<0.01
Protocol: The effect of rAF on inflammation in the intestinal mucosa was also tested in the rat intestinal loop model. […] Half of the rats in each group received 100 ng of rAF intravenously 30 sec prior to the challenge; the other half received PBS buffer as control. After killing the rat, the loops was dissected out, and the middle 2-3 cm part of the loops were frozen on dry ice. The frozen specimens were then sectioned in 8 μm thick sections by use of a Leica cryostat. […] Alkaline phosphatases are expressed by the intestinal epithelial cells and the staining allows an assessment and of the integrity of the intestinal epithelium.

[5] = tested on: cholera toxin-induced Evans blue permeation of intestinal tissue; details: rat, in vivo
Toxicity of rAF in rats = format: in vivo, rat
Protocol: Toxicity—In order to test the toxicity of rAF it was injected in a high dose, 50 μg per rat.

IVCHSKTR (Human) [P1]
ED50 (amount causing halfmaximal inhibition) [1]: 5 pmol | active dose [1]: less than 1 ng | activity (inhibition of cholera secretion) [1]: active | CT-induced extravascular penetration of Evans blue, plexus choroideus [2]: inhibits the CT-induced extravascular penetration of Evans blue | CT-induced extravascular penetration of Evans blue, small intestine [3]: inhibits the CT-induced extravascular penetration of Evans blue | effect on toxin A-induced intestinal inflammation and fluid secretion ([4]; 0.5 μg replacing the rAF protein): achieved the same effect | state of intestinal mucosa (alkaline phosphatase staining, FIG. 9) ([4]; 0.5 μl of P1 prior to toxin challenge): a conserved and normal intestinal mucosa

N2: recombinant peptide, amino acids 36-80 of SEQ ID NO:2, expressed from basepairs 168-301 (VCHSKTRSNPENNVGLITLANDCEVLTTLTPDTGRILSKLHTVQP; Human)
ED50 (amount causing halfmaximal inhibition) [1]: 6 pmol

N3: recombinant peptide, amino acids 36-51 of SEQ ID NO:2, expressed from basepairs 168-215 (VCHSKTRSNPENNVGL; Human)
ED50 (amount causing halfmaximal inhibition) [1]: 3 pmol

P3: peptide of amino acids 35-46 of SEQ ID NO:2, solid phase synthesis (IVCHSKTRSNPE; Human)
ED50 (amount causing halfmaximal inhibition) [1]: 7 pmol | activity (inhibition of cholera secretion) [1]: active

VCHSKT (Human) [P2]
effect on the toxin response [1]: no effect

B1: N1: recombinant peptide, amino acids 1-80 of SEQ ID NO:2, expressed from basepairs 63-301 (protein)
chain: MVLESTMVCVDNSEYMRNGDFLPTRLQAQQDAVNIVCHSKTRSNPENNVGLITLANDCEVLTTLTPDTGRILSKLHTVQP
modifications: Human
ED50 (amount causing halfmaximal inhibition) [1]: 4 pmol

B2: rAF: recombinant human antisecretory factor, SEQ ID No. 2, thrombin-cleaved pure AF-1 protein expressed in E. coli (protein)
chain: MVLESTMVCVDNSEYMRNGDFLPTRLQAQQDAVNIVCHSKTRSNPENNVGLITLANDCEVLTTLTPDTGRILSKLHTVQPKGKITFCTGIRVAHLALKHRQGKNHKMRIIAFVGSPVEDNEKDLVKLAKRLKKEKVNVDIINFGEEEVNTEKLTAFVNTLNGKDGTGSHLVTVPPGPSLADALISSPILAGEGGAMLGLGASDFEFGVDPSADPELALALRVSMEEQRHAGGGARRAARASAAEAGIATTGTEDSDDALLKMTISQQEFGRTGLPDLSSMTEEEQIAYAMQMSLQGAEFGQAESADIDASSAMDTSEPAKEEDDYDVMQDPEFLQSVLENLPGVDPNNEAIRNAMGSLPPRPPRTARRTRRRKTRSETGGKG
modifications: Human
inhibition of intestinal secretion compared to control animals [1]: significant inhibition | reduction of the fluid secretion compared to controls [1]: significant reduction | % increase of EB-konc [5]: 0 NS % | CT-induced increase of EB extracted from the intestinal tissue [5]: prevent this increase | EB/g int. tissue × 10^−07 [5]: 29.6 ± 1.5 EB/g int. tissue × 10^−07 | toxic reaction (Toxicity of rAF in rats; 50 μg per rat, observation period of one week): No obvious toxic reaction | toxic reactions (Toxicity of rAF in rats; rats given 100 fold higher doses than that causing half-maximal inhibition): no obvious toxic reactions | damage of the intestinal mucosa (shedding, necrosis, bleeding) ([4]; 100 ng i.v. 30 sec prior to 0.5 μg toxin A, 2.5 and 5 h): no shedding, necrosis or bleeding | toxin A-induced fluid secretion ([4]; 100 ng i.v. 30 sec prior to 0.5 μg toxin A, after 2.5 h, control 199±4): 137 ± 5 mg/cm | toxin A-induced fluid secretion ([4]; 100 ng i.v. 30 sec prior to 0.5 μg toxin A, after 6 h, control 421±3): 203 ± 6 mg/cm
